Results reported in US12660819B2, “Herbicidal derivatives” (SYNGENTA CROP PROTECTION AG, priority 2020, dated 2026).

Experiments:
Type in all cases: in vivo
Zea mays (ZEAMX) [1] = assay: Pre-emergence Test (glasshouse, percentage damage to the plant); conditions: 1000 g/ha unless otherwise stated, five-point scale
[2] = test system: Amaranthus retoflexus (AMARE); assay: as above; conditions: 1000 g/ha unless otherwise stated, five-point scale
Setaria faberi (SETFA) [3] = assay: as above; conditions: 1000 g/ha unless otherwise stated, five-point scale
[4] = test system: Echinochloa crus-galli (ECHCG); assay: as above; conditions: 1000 g/ha unless otherwise stated, five-point scale
[5] = test system: Abutilon theophrasti (ABUTH); assay: as above; conditions: 1000 g/ha unless otherwise stated, five-point scale
Setaria faberi (SETFA) [6] = assay: Post-emergence Test (glasshouse, percentage damage to the plant); conditions: post-emergence spray, 1000 g/ha unless otherwise stated, evaluated after 13 days
How it was run: (§1)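 Spray treatment of sown glasshouse pots at 1000 g/ha (default rate), vehicle acetone/water 50:50 plus 0.5% Tween 20. Read-out: percentage damage after 13 days, converted to a score where 5 denotes 81-100% and 1 denotes 0-20%.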

[7] = test system: Echinochloa crus-galli (ECHCG); assay: as above; conditions: post-emergence spray, 1000 g/ha unless otherwise stated, evaluated after 13 days
How it was run: (§2)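 Compound formulated in 50:50 acetone/water with 0.5% Tween 20 was diluted to an aqueous spray and applied at 1000 g/ha, unless otherwise stated, onto sown pots. Evaluation after 13 days gave percentage damage, banded into a 1–5 score.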

[8] = test system: Ipomoea hederacea (IPOHE); assay: as above; conditions: post-emergence spray, 1000 g/ha unless otherwise stated, evaluated after 13 days
How it was run: as §1

Zea mays (ZEAMX) [9] = assay: as above; conditions: post-emergence spray, 1000 g/ha unless otherwise stated, evaluated after 13 days
How it was run: as §1

[10] = test system: Abutilon theophrasti (ABUTH); assay: as above; conditions: post-emergence spray, 1000 g/ha unless otherwise stated, evaluated after 13 days
How it was run: as §2

[11] = test system: Amaranthus retoflexus (AMARE); assay: as above; conditions: post-emergence spray, 1000 g/ha unless otherwise stated, evaluated after 13 days
How it was run: as §2

[12] = test system: Ipomoea hederacea (IPOHE); assay: Pre-emergence Test (glasshouse, percentage damage to the plant); conditions: 1000 g/ha unless otherwise stated, five-point scale

CCn1c(-c2ccc(Cl)c(Cl)c2)c(C(=O)O)c(=O)c(-c2ccc(Cl)cc2)c1C(F)(F)F [Compound 132, 5-(4-chlorophenyl)-2-(3,4-dichlorophenyl)-1-ethyl-4-oxo-6-(trifluoromethyl) pyridine-3-carboxylic acid]
2 (2=21-40%): percentage damage to the plant, IPOHE [12]
1 (1=0-20%): Post-emergence Test ZEAMX, percentage damage to the plant (five-point scale) (Zea mays (ZEAMX) [9])
5 (5=81-100%): percentage damage to the plant, AMARE [2] | Post-emergence Test AMARE, percentage damage to the plant (five-point scale) [11]
4 (4=61-80%): percentage damage to the plant, ABUTH [5] | Post-emergence Test IPOHE, percentage damage to the plant (five-point scale) [8]
0: percentage damage to the plant, ZEAMX (Zea mays (ZEAMX) [1]) | percentage damage to the plant, SETFA (Setaria faberi (SETFA) [3]) | percentage damage to the plant, ECHCG [4] | Post-emergence Test SETFA, percentage damage to the plant (five-point scale) (Setaria faberi (SETFA) [6]) | Post-emergence Test ECHCG, percentage damage to the plant (five-point scale) [7]
3 (3=41-60%): Post-emergence Test ABUTH, percentage damage to the plant (five-point scale) [10]

CCOc1cc(C)cc(-c2c(C)n(CC)c(-c3ccc(Cl)c(Cl)c3)c(C(=O)O)c2=O)c1 [Compound 103, 2-(3,4-dichlorophenyl)-5-(3-ethoxy-5-methyl-phenyl)-1-ethyl-6-methyl-4-oxo-pyridine-3-carboxylic acid]
1 (1=0-20%): percentage damage to the plant, ZEAMX (Zea mays (ZEAMX) [1]) | percentage damage to the plant, AMARE [2] | percentage damage to the plant, ECHCG [4] | percentage damage to the plant, ABUTH [5] | Post-emergence Test SETFA, percentage damage to the plant (five-point scale) (Setaria faberi (SETFA) [6]) | Post-emergence Test ECHCG, percentage damage to the plant (five-point scale) [7] | Post-emergence Test IPOHE, percentage damage to the plant (five-point scale) [8] | Post-emergence Test ZEAMX, percentage damage to the plant (five-point scale) (Zea mays (ZEAMX) [9]) | Post-emergence Test AMARE, percentage damage to the plant (five-point scale) [11] | percentage damage to the plant, IPOHE [12]
2 (2=21-40%): percentage damage to the plant, SETFA (Setaria faberi (SETFA) [3]) | Post-emergence Test ABUTH, percentage damage to the plant (five-point scale) [10]

CCn1c(C)c(-c2ccc(C(C)(C)C)cc2)c(=O)c(C(=O)O)c1-c1ccc(Cl)c(Cl)c1 [Compound 55, 5-(4-tert-butylphenyl)-2-(3,4-dichlorophenyl)-1-ethyl-6-methyl-4-oxo-pyridine-3-carboxylic acid]
1 (1=0-20%): percentage damage to the plant, ZEAMX (Zea mays (ZEAMX) [1]) | percentage damage to the plant, AMARE [2] | percentage damage to the plant, SETFA (Setaria faberi (SETFA) [3]) | percentage damage to the plant, ECHCG [4] | percentage damage to the plant, ABUTH [5] | Post-emergence Test SETFA, percentage damage to the plant (five-point scale) (Setaria faberi (SETFA) [6]) | Post-emergence Test ECHCG, percentage damage to the plant (five-point scale) [7] | Post-emergence Test IPOHE, percentage damage to the plant (five-point scale) [8] | Post-emergence Test ZEAMX, percentage damage to the plant (five-point scale) (Zea mays (ZEAMX) [9]) | Post-emergence Test ABUTH, percentage damage to the plant (five-point scale) [10] | Post-emergence Test AMARE, percentage damage to the plant (five-point scale) [11] | percentage damage to the plant, IPOHE [12]

CCn1c(C)c(-c2cccc(C(C)=O)c2)c(=O)c(C(=O)O)c1-c1ccc(Cl)c(Cl)c1 [Compound 112, 5-(3-acetylphenyl)-2-(3,4-dichlorophenyl)-1-ethyl-6-methyl-4-oxo-pyridine-3-carboxylic acid]
2 (2=21-40%): percentage damage to the plant, ABUTH [5] | Post-emergence Test IPOHE, percentage damage to the plant (five-point scale) [8] | Post-emergence Test AMARE, percentage damage to the plant (five-point scale) [11]
4 (4=61-80%): percentage damage to the plant, SETFA (Setaria faberi (SETFA) [3]) | Post-emergence Test SETFA, percentage damage to the plant (five-point scale) (Setaria faberi (SETFA) [6])
1 (1=0-20%): percentage damage to the plant, ZEAMX (Zea mays (ZEAMX) [1]) | percentage damage to the plant, AMARE [2] | percentage damage to the plant, ECHCG [4] | Post-emergence Test ZEAMX, percentage damage to the plant (five-point scale) (Zea mays (ZEAMX) [9]) | percentage damage to the plant, IPOHE [12]
3 (3=41-60%): Post-emergence Test ECHCG, percentage damage to the plant (five-point scale) [7] | Post-emergence Test ABUTH, percentage damage to the plant (five-point scale) [10]

CCn1c(C)c(-c2cncc(F)c2)c(=O)c(C(=O)O)c1-c1ccc(Cl)c(Cl)c1 [Compound 85, 2-(3,4-dichlorophenyl)-1-ethyl-5-(5-fluoro-3-pyridyl)-6-methyl-4-oxo-pyridine-3-carboxylic acid]
2 (2=21-40%): percentage damage to the plant, ABUTH [5]
3 (3=41-60%): Post-emergence Test SETFA, percentage damage to the plant (five-point scale) (Setaria faberi (SETFA) [6]) | Post-emergence Test ABUTH, percentage damage to the plant (five-point scale) [10]
4 (4=61-80%): percentage damage to the plant, SETFA (Setaria faberi (SETFA) [3])
1 (1=0-20%): percentage damage to the plant, ZEAMX (Zea mays (ZEAMX) [1]) | percentage damage to the plant, AMARE [2] | percentage damage to the plant, ECHCG [4] | Post-emergence Test ECHCG, percentage damage to the plant (five-point scale) [7] | Post-emergence Test IPOHE, percentage damage to the plant (five-point scale) [8] | Post-emergence Test ZEAMX, percentage damage to the plant (five-point scale) (Zea mays (ZEAMX) [9]) | Post-emergence Test AMARE, percentage damage to the plant (five-point scale) [11] | percentage damage to the plant, IPOHE [12]

CCn1c(C)c(-c2cc(F)c(OC)c(Cl)c2)c(=O)c(C(=O)O)c1-c1ccc(Cl)c(Cl)c1 [Compound 75, 5-(3-chloro-5-fluoro-4-methoxy-phenyl)-2-(3,4-dichlorophenyl)-1-ethyl-6-methyl-4-oxo-pyridine-3-carboxylic acid]
2 (2=21-40%): Post-emergence Test IPOHE, percentage damage to the plant (five-point scale) [8] | Post-emergence Test ABUTH, percentage damage to the plant (five-point scale) [10]
1 (1=0-20%): percentage damage to the plant, ZEAMX (Zea mays (ZEAMX) [1]) | percentage damage to the plant, AMARE [2] | percentage damage to the plant, SETFA (Setaria faberi (SETFA) [3]) | percentage damage to the plant, ECHCG [4] | percentage damage to the plant, ABUTH [5] | Post-emergence Test SETFA, percentage damage to the plant (five-point scale) (Setaria faberi (SETFA) [6]) | Post-emergence Test ECHCG, percentage damage to the plant (five-point scale) [7] | Post-emergence Test ZEAMX, percentage damage to the plant (five-point scale) (Zea mays (ZEAMX) [9]) | Post-emergence Test AMARE, percentage damage to the plant (five-point scale) [11] | percentage damage to the plant, IPOHE [12]

CCn1c(C)c(-c2cnc(F)c(F)c2)c(=O)c(C(=O)O)c1-c1ccc(Cl)c(Cl)c1 [Compound 59, 2-(3,4-dichlorophenyl)-5-(5,6-difluoro-3-pyridyl)-1-ethyl-6-methyl-4-oxo-pyridine-3-carboxylic acid]
3 (3=41-60%): percentage damage to the plant, ABUTH [5] | Post-emergence Test ECHCG, percentage damage to the plant (five-point scale) [7] | Post-emergence Test IPOHE, percentage damage to the plant (five-point scale) [8] | Post-emergence Test ZEAMX, percentage damage to the plant (five-point scale) (Zea mays (ZEAMX) [9]) | Post-emergence Test ABUTH, percentage damage to the plant (five-point scale) [10] | Post-emergence Test AMARE, percentage damage to the plant (five-point scale) [11] | percentage damage to the plant, IPOHE [12]
1 (1=0-20%): percentage damage to the plant, ZEAMX (Zea mays (ZEAMX) [1]) | percentage damage to the plant, AMARE [2]
4 (4=61-80%): percentage damage to the plant, SETFA (Setaria faberi (SETFA) [3]) | Post-emergence Test SETFA, percentage damage to the plant (five-point scale) (Setaria faberi (SETFA) [6])
2 (2=21-40%): percentage damage to the plant, ECHCG [4]

CCOc1cc(-c2c(C)n(CC)c(-c3ccc(Cl)c(Cl)c3)c(C(=O)O)c2=O)ccc1C#N [Compound 107, 5-(4-cyano-3-ethoxy-phenyl)-2-(3,4-dichlorophenyl)-1-ethyl-6-methyl-4-oxo-pyridine-3-carboxylic acid]
1 (1=0-20%): percentage damage to the plant, ZEAMX (Zea mays (ZEAMX) [1]) | percentage damage to the plant, ABUTH [5] | percentage damage to the plant, IPOHE [12]
3 (3=41-60%): Post-emergence Test IPOHE, percentage damage to the plant (five-point scale) [8] | Post-emergence Test ABUTH, percentage damage to the plant (five-point scale) [10]
5 (5=81-100%): percentage damage to the plant, SETFA (Setaria faberi (SETFA) [3])
2 (2=21-40%): Post-emergence Test SETFA, percentage damage to the plant (five-point scale) (Setaria faberi (SETFA) [6]) | Post-emergence Test ECHCG, percentage damage to the plant (five-point scale) [7] | Post-emergence Test ZEAMX, percentage damage to the plant (five-point scale) (Zea mays (ZEAMX) [9])
4 (4=61-80%): percentage damage to the plant, AMARE [2] | percentage damage to the plant, ECHCG [4] | Post-emergence Test AMARE, percentage damage to the plant (five-point scale) [11]

CCn1c(C)c(C2=CCCC2)c(=O)c(C(=O)O)c1-c1ccc(Cl)c(Cl)c1 [Compound 68, 5-(cyclopenten-1-yl)-2-(3,4-dichlorophenyl)-1-ethyl-6-methyl-4-oxo-pyridine-3-carboxylic acid]
1 (1=0-20%): percentage damage to the plant, ZEAMX (Zea mays (ZEAMX) [1]) | percentage damage to the plant, AMARE [2] | percentage damage to the plant, ECHCG [4] | percentage damage to the plant, ABUTH [5] | Post-emergence Test ZEAMX, percentage damage to the plant (five-point scale) (Zea mays (ZEAMX) [9]) | Post-emergence Test AMARE, percentage damage to the plant (five-point scale) [11]
5 (5=81-100%): percentage damage to the plant, SETFA (Setaria faberi (SETFA) [3])
2 (2=21-40%): Post-emergence Test ECHCG, percentage damage to the plant (five-point scale) [7] | percentage damage to the plant, IPOHE [12]
3 (3=41-60%): Post-emergence Test SETFA, percentage damage to the plant (five-point scale) (Setaria faberi (SETFA) [6]) | Post-emergence Test IPOHE, percentage damage to the plant (five-point scale) [8] | Post-emergence Test ABUTH, percentage damage to the plant (five-point scale) [10]
